Data reported in patent US20080161232A1, “C5a Receptor Antagonist” (JERINI AG, priority 2005, published 2008).
Like-named read-outs stand apart in the source and are kept apart here. Starred links: 1 amine or outer side, 2 acyl side, 3 side chain; linkers in the order of their positions; H or OH if unused. Positions of bridges follow the written chain, without caps; N, C: chain ends. Non-standard residues stand in square brackets, D forms with d. Residues, ends and D or L forms follow the SMILES beside them. Groups on a side chain read outwards from the residue. *: point of attachment. Decanoyl(3,6,9-trioxa) = COCCOCCOCC(=O)*; Phe(4-NH2) = Nc1ccc(C[C@H](N)C(=O)O)cc1; Phe(4-Me) = Cc1ccc(C[C@H](N)C(=O)O)cc1; 2Nal = N[C@@H](Cc1ccc2ccccc2c1)C(=O)O; His(τ-Me) = Cn1cnc(C[C@H](N)C(=O)O)c1; Hyp = O=C(O)[C@@H]1C[C@@H](O)CN1; 4Pal = N[C@@H](Cc1ccncc1)C(=O)O; 2Thi = N[C@@H](Cc1cccs1)C(=O)O; Cha = N[C@@H](CC1CCCCC1)C(=O)O; dCha = N[C@H](CC1CCCCC1)C(=O)O; NHCH2CH(OH)CH2OH = OCC(O)CN*; hLeu = CC(C)CC[C@H](N)C(=O)O; Nle = CCCC[C@H](N)C(=O)O; Orn = NCCC[C@H](N)C(=O)O; Pra = C#CC[C@H](N)C(=O)O; Nva = CCC[C@H](N)C(=O)O; CO = O=C([*:1])[*:2]

Target: T1, human C5aR(CD88) (Homo sapiens, UniProt P21730)
T1 construct: expressed in transfected cells; host or cells: rat basophilic leukemia cells (RBL)
T1 sequence (P21730 1-350): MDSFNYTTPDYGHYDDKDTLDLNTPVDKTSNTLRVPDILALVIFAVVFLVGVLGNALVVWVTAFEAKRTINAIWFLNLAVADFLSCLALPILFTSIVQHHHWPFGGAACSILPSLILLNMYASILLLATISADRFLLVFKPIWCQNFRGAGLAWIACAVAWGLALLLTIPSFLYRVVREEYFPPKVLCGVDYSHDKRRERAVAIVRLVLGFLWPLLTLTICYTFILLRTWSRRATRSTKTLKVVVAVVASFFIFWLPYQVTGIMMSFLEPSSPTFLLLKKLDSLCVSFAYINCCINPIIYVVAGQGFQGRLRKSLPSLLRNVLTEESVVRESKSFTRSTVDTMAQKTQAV
Experiment: Determination of the IC50 value in an enzyme release assay (functional assay, antagonistic activity)
Assay type: cell-based
Settings: for inhibitory activity (in words): functional assay of example 11, noteworthy = IC50 less than 200 nM

[1] = antagonistic activity, IC50 group in enzyme release assay, RBL cells expressing human C5aR(CD88), read-out: activity (group)

| IC50 [1] [nM] | inhibitory activity (in words) | other results | SMILES |
| --- | --- | --- | --- |
| 50 to 200 |  |  | CCCC[C@@H]1NC(=O)[C@H](Cc2c[nH]c3ccccc23)NC(=O)[C@@H](CC2CCCCC2)NC(=O)[C@@H]2CCCN2C(=O)[C@@H](NC(=O)[C@H](Cc2ccccc2)NC(=O)CON=CC(O)C(O)C(O)C(O)CO)CCCNC1=O (single isomer, unassigned) [Compound 334, Fck-Phe-[Orn-Pro-cha-Trp-Nle]] |
|  |  | IC50 (functional assay as used in this application, values in text, read-out: IC50): 1300 nM | CC(=O)N[C@@H](Cc1ccccc1)C(=O)N[C@@H](CCCCN)C(=O)N[C@@H](C)C(=O)N[C@@H](CC1CCCCC1)C(=O)N[C@@H](C)C(=O)N[C@@H](CC(C)C)C(=O)N[C@H](C)C(=O)N[C@@H](Cc1ccc(O)cc1)C(=O)O [Ac-Phe-Lys-Ala-Cha-Ala-Leu-ala-Tyr-OH, reference compound] (Ac-FKA[Cha]AL[dA]Y-OH) |
|  | noteworthy inhibitory activity |  | COCCOCCOCC(=O)O[C@@H]1C[C@H]2C(=O)N[C@H](CC3CCCCC3)C(=O)N[C@@H](Cc3c[nH]c4ccccc34)C(=O)N[C@@H](Cc3ccccc3)C(=O)NCCC[C@H](NC(=O)[C@H](Cc3ccccc3)NC(C)=O)C(=O)N2C1 [Ac-Phe-[Orn-Hyp(COCH2OCH2CH2OCH2CH2OCH3)-cha-Trp-Phe]] (Ac-F[Orn][Hyp](Decanoyl(3,6,9-trioxa))[dCha]WF; lactam 2-C) |
|  | noteworthy inhibitory activity |  | CC(=O)N[C@@H](Cc1ccccc1)C(=O)N[C@H]1CCCNC(=O)[C@H](Cc2ccncc2)NC(=O)[C@H](Cc2c[nH]c3ccccc23)NC(=O)[C@@H](CC2CCCCC2)NC(=O)[C@@H]2CCCN2C1=O [Ac-Phe-[Orn-Pro-cha-Trp-Ppa]] (Ac-F[Orn]P[dCha]W[4Pal]; lactam 2-C) |
|  | noteworthy inhibitory activity |  | CC(=O)N[C@@H](Cc1ccccc1)C(=O)N[C@H]1CCCNC(=O)[C@H](Cc2ccccc2)NC(=O)[C@H](Cc2c[nH]c3ccccc23)NC(=O)[C@@H](CC2CCCCC2)NC(=O)[C@H](CO)NC1=O [Ac-Phe-[Orn-Ser-cha-Trp-Phe]] (Ac-F[Orn]S[dCha]WF; lactam 2-C) |
| 50 to 200 |  |  | CCCC[C@@H]1NC(=O)[C@H](Cc2c[nH]c3ccccc23)NC(=O)[C@@H](CC2CCCCC2)NC(=O)[C@@H]2C[C@@H](OC(=O)COCCOCCOC)CN2C(=O)[C@@H](NC(=O)[C@H](Cc2ccccc2)NC(C)=O)CCCNC1=O [Compound 5, Ac-Phe-[Orn-Hyp(COCH2OCH2CH2OCH2CH2OCH3)-cha-Trp-Nle]] (Ac-F[Orn][Hyp](Decanoyl(3,6,9-trioxa))[dCha]W[Nle]; lactam 2-C) |
| 50 to 200 |  |  | CCCC[C@@H]1NC(=O)[C@H](Cc2c[nH]c3ccccc23)NC(=O)[C@@H](CC2CCCCC2)NC(=O)[C@@H]2C[C@@H](OC(=O)NCC(O)CO)CN2C(=O)[C@@H](NC(=O)[C@H](Cc2ccccc2)NC(C)=O)CCCNC1=O (stereo partly drawn) [Compound 6, Ac-Phe-[Orn-Hyp(CONH—CH2CH(OH)—CH2OH)-cha-Trp-Nle]] (Ac-F[Orn][Hyp]([CO-NHCH2CH(OH)CH2OH])[dCha]W[Nle]; lactam 2-C) |
| 200 to 2000 |  |  | CC(=O)N[C@@H](Cc1ccccc1)C(=O)N[C@H]1CCCNC(=O)[C@H](CCCNC2=NCCN2)NC(=O)[C@H](Cc2c[nH]c3ccccc23)NC(=O)[C@@H](CC2CCCCC2)NC(=O)[C@@H]2CCCN2C1=O [Compound 7, Ac-Phe-[Orn-Pro-cha-Trp-Arg(CH2CH2)]] |
| 200 to 2000 |  |  | CC(=O)N[C@@H](Cc1ccccc1)C(=O)N[C@H]1CCCNC(=O)[C@H](CCCNC(N)=O)NC(=O)[C@H](Cc2c[nH]c3ccccc23)NC(=O)[C@@H](CC2CCCCC2)NC(=O)[C@@H]2CCCN2C1=O [Compound 10, Ac-Phe-[Orn-Pro-cha-Trp-Cit], reference compound] |
| 20 to 50 | noteworthy inhibitory activity | IC50 (functional assay of example 11, values in text, read-out: IC50): 30 nM | CC(=O)N[C@@H](Cc1ccccc1)C(=O)N[C@H]1CCCNC(=O)[C@H](Cc2ccc(N)cc2)NC(=O)[C@H](Cc2c[nH]c3ccccc23)NC(=O)[C@@H](CC2CCCCC2)NC(=O)[C@@H]2CCCN2C1=O [Compound 14, Ac-Phe-[Orn-Pro-cha-Trp-Paf]] (Ac-F[Orn]P[dCha]W[Phe(4-NH2)]; lactam 2-C (inferred)) |
| 50 to 200 | noteworthy inhibitory activity |  | CC(=O)N[C@@H](Cc1ccccc1)C(=O)N[C@H]1CCCNC(=O)[C@H](Cc2cn(C)cn2)NC(=O)[C@H](Cc2c[nH]c3ccccc23)NC(=O)[C@@H](CC2CCCCC2)NC(=O)[C@@H]2CCCN2C1=O [Compound 20, Ac-Phe-[Orn-Pro-cha-Trp-Ecr]] (Ac-F[Orn]P[dCha]W[His(τ-Me)]; lactam 2-C) |
| > 2000 |  |  | CC(=O)N[C@@H](Cc1ccccc1)C(=O)N[C@H]1CCCNC(=O)[C@H](CCCCN)NC(=O)[C@H](Cc2c[nH]c3ccccc23)NC(=O)[C@@H](CC2CCCCC2)NC(=O)[C@@H]2CCCN2C1=O [Compound 22] (Ac-F[Orn]P[dCha]WK; lactam 2-C (inferred)) |
| 50 to 200 | without significant loss of activity | inhibitory activity (in words) (listed as Ac-Phe-[Orn-Pro-cha-Trp-Met]): noteworthy inhibitory activity | CSCC[C@@H]1NC(=O)[C@H](Cc2c[nH]c3ccccc23)NC(=O)[C@@H](CC2CCCCC2)NC(=O)[C@@H]2CCCN2C(=O)[C@@H](NC(=O)[C@H](Cc2ccccc2)NC(C)=O)CCCNC1=O [Compound 29, Ac-Phe-[Orn-Pro-cha-Trp-Met]] (Ac-F[Orn]P[dCha]WM; lactam 2-C) |
| 10 to 20 | without significant loss of activity | inhibitory activity (in words) (listed as Ac-Phe-[Orn-Pro-cha-Trp-Nva]): noteworthy inhibitory activity | CCC[C@@H]1NC(=O)[C@H](Cc2c[nH]c3ccccc23)NC(=O)[C@@H](CC2CCCCC2)NC(=O)[C@@H]2CCCN2C(=O)[C@@H](NC(=O)[C@H](Cc2ccccc2)NC(C)=O)CCCNC1=O [Compound 31, Ac-Phe-[Orn-Pro-cha-Trp-Nva]] (Ac-F[Orn]P[dCha]W[Nva]; lactam 2-C) |
| 20 to 50 | without significant loss of activity | inhibitory activity (in words) (listed as Ac-Phe-[Orn-Pro-cha-Trp-Hle]): noteworthy inhibitory activity | CC(=O)N[C@@H](Cc1ccccc1)C(=O)N[C@H]1CCCNC(=O)[C@H](CCC(C)C)NC(=O)[C@H](Cc2c[nH]c3ccccc23)NC(=O)[C@@H](CC2CCCCC2)NC(=O)[C@@H]2CCCN2C1=O [Compound 32, Ac-Phe-[Orn-Pro-cha-Trp-Hle]] (Ac-F[Orn]P[dCha]W[hLeu]; lactam 2-C) |
| 20 to 50 | without significant loss of activity | inhibitory activity (in words) (listed as Ac-Phe-[Orn-Pro-cha-Trp-Ebd]): noteworthy inhibitory activity | CCSC[C@@H]1NC(=O)[C@H](Cc2c[nH]c3ccccc23)NC(=O)[C@@H](CC2CCCCC2)NC(=O)[C@@H]2CCCN2C(=O)[C@@H](NC(=O)[C@H](Cc2ccccc2)NC(C)=O)CCCNC1=O [Compound 34, Ac-Phe-[Orn-Pro-cha-Trp-Ebd]] (Ac-F[Orn]P[dCha]WC(Et); lactam 2-C) |
| 5 to 10 | without significant loss of activity | inhibitory activity (in words) (listed as Ac-Phe-[Orn-Pro-cha-Trp-Eag]): noteworthy inhibitory activity | C#CC[C@@H]1NC(=O)[C@H](Cc2c[nH]c3ccccc23)NC(=O)[C@@H](CC2CCCCC2)NC(=O)[C@@H]2CCCN2C(=O)[C@@H](NC(=O)[C@H](Cc2ccccc2)NC(C)=O)CCCNC1=O [Compound 35, Ac-Phe-[Orn-Pro-cha-Trp-Eag]] (Ac-F[Orn]P[dCha]W[Pra]; lactam 2-C) |
| 20 to 50 | without significant loss of activity | inhibitory activity (in words) (listed as Ac-Phe-[Orn-Pro-cha-Trp-Pmf]): noteworthy inhibitory activity | CC(=O)N[C@@H](Cc1ccccc1)C(=O)N[C@H]1CCCNC(=O)[C@H](Cc2ccc(C)cc2)NC(=O)[C@H](Cc2c[nH]c3ccccc23)NC(=O)[C@@H](CC2CCCCC2)NC(=O)[C@@H]2CCCN2C1=O [Compound 36, Ac-Phe-[Orn-Pro-cha-Trp-Pmf]] (Ac-F[Orn]P[dCha]W[Phe(4-Me)]; lactam 2-C) |
| 50 to 200 | without significant loss of activity | inhibitory activity (in words) (listed as Ac-Phe-[Orn-Pro-cha-Trp-2Ni]): noteworthy inhibitory activity | CC(=O)N[C@@H](Cc1ccccc1)C(=O)N[C@H]1CCCNC(=O)[C@H](Cc2ccc3ccccc3c2)NC(=O)[C@H](Cc2c[nH]c3ccccc23)NC(=O)[C@@H](CC2CCCCC2)NC(=O)[C@@H]2CCCN2C1=O [Compound 37, Ac-Phe-[Orn-Pro-cha-Trp-2Ni]] (Ac-F[Orn]P[dCha]W[2Nal]; lactam 2-C) |
| 20 to 50 | without significant loss of activity | inhibitory activity (in words) (listed as Ac-Phe-[Orn-Pro-cha-Trp-Thi]): noteworthy inhibitory activity | CC(=O)N[C@@H](Cc1ccccc1)C(=O)N[C@H]1CCCNC(=O)[C@H](Cc2cccs2)NC(=O)[C@H](Cc2c[nH]c3ccccc23)NC(=O)[C@@H](CC2CCCCC2)NC(=O)[C@@H]2CCCN2C1=O [Compound 38, Ac-Phe-[Orn-Pro-cha-Trp-Thi]] (Ac-F[Orn]P[dCha]W[2Thi]; lactam 2-C) |
